Results on one compound are retold here after patent publication US20150224164A1, “TREATMENT OF AUTISM SPECTRUM DISORDERS USING GLYCYL-L-2-METHYLPROLYL-L-GLUMATIC ACID” (Neuren Pharmaceuticals Limited, priority 2013, published 2015).

Assay [1] relates to Tbx1 heterozygous, Cntnap2 knockout, Slc9a6 knockout and fmr1 knockout mouse. As to the kind of experiment: Genetic models of ASD: Tbx1, Cntnap2, Slc9a6, fmr1 mice (Example 17). The assay is classed as in vivo. As to conditions: 20 mg/kg/day i.p. On the procedure: Animals in each of the above models are generated in accordance with the methodology described in the cited literature. Wild type equivalents are also obtained for each genetic model. Animals in each model are divided into three groups (n=10 to n=20): placebo treated wild type mice, mutant G-2-MePE-treated group and mutant placebo-treated control group. The treatments are administered intraperitoneally: placebo (saline) or 20 mg/kg/day of G-2-MePE.

In a further assay the test system is RTT iPSC-derived neurons. Description: In vitro human model of Rett Syndrome, iPSC-derived neurons (Example 14). As to conditions: 1 nM-10 μM for 1 week. The assay is classed as cell-based. The protocol: RTT fibroblasts (carrying 4 distinct MeCP2 mutations) and control fibroblasts are generated from explants of dermal biopsies. The shRNA against target MeCP2 gene is cloned into the LentiLox3.7 lentivirus vector (as described in Marchetto et al.). The fibroblasts are infected with retroviral reprogramming vectors (Sox2, Oct4, c-Myc and Klf4). Two days after infection, fibroblasts are plated on mitotically inactivated mouse embryonic fibroblasts with hESC medium. After 2 weeks, iPSC colonies that emerge from the background of fibroblasts are manually picked and transferred to feeder-free conditions on matrigel-coated dishes (BD) using embryonic stem cell culture media mTeSR™ (Stem Cell Technologies) and passaged manually. Gene expression profiles of the generated clones are measured using human genome Affymetrix Gene Chip™ arrays to confirm that reprogramming is successful. […]
Cells are fixed in 4% paraformaldehyde and permeabilized with 0.5% Triton-X100 in PBS. […] Fluorescent signals are detected using a Zeiss inverted microscope and images are processed with Photoshop CS3. The following primary antibodies are used: TRA-1-60, TRA-1-81 (1:100), Nanog and Lin28 (1:500), human Nestin (1:100), Tuj-1 (1:500), Map2 (1:100); meCP2 (1:1000; VGLUT1 (1:200), Psd95 (1:500), GFP (1:200), Sox1 (1:250), Mushasil (1:200) and me3H3K27 (1:500). Cell soma size is measured using suitable software (e.g. ImageJ) after identification of neurons using the Syn::EGFP™. The morphologies of neuronal dendrites and spines are studied from an individual projection of z-stacks optical sections and scanned at 0.5 um increments that correlate with the resolution valued at z-plane. Each optical section is the result of 3 scans at 500 lps followed by Kalman filtering. For synapse quantification, images are taken by a z-step of 1 um using Biorad radiance 2100™ confocal microscope. Synapse quantification is done blinded to genotype. Only VGLUT1 puncta along Map2-positive processes are counted. […]

Where a SMILES comes first, the peptide text is derived from it.

Turning to `C[C@@]1(C(=O)N[C@@H](CCC(=O)O)C(=O)O)CCCN1C(=O)CN` [Example G-2-MePE, Glycyl-L-2-methylprolyl-L-glutamic acid] (HELM PEPTIDE1{G.[C[C@@]1(C(=O)[*:2])CCCN1[*:1]].E}$$$$V2.0), the “measures associated with the ASD phenotype” value in assay [1] is “significantly improves all measures”. Further, in the assay on RTT iPSC-derived neurons, the “frequency and amplitude of spontaneous post-synaptic currents, frequency of calcium transients” value is listed as “normalizes”; the glutamatergic synapse numbers entry was “significant increase”. In addition, in the assay with RTT iPSC-derived neurons (all concentrations), the VGLUT1 puncta number result is reported as “increase VGLUT1 puncta number”.
